Values belong to the compound of their own block, whether it stands above or below them.
Experiments:
Format in all cases: physicochemical
[1] = Powder dissolution, USP/NF paddle method with HPLC analysis; conditions: 500 mg in 900 mL water, 37 °C, 75 rpm; for Amoxicillin released in solution Mean: mean of 3; for Amoxicillin released in solution #1: replicate #1; for Amoxicillin released in solution #2: replicate #2; for Amoxicillin released in solution #3: replicate #3
Procedure: Dissolution analysis of amoxicillin trihydrate powder samples was carried out using the USP/NF paddle method at a rotational speed of 75 rpm. Ultrapure ELGA laboratory water (900 mL) was used as dissolution medium. Media were equilibrated to 37.0±0.5° C. prior to dissolution. Amoxicillin trihydrate sample powder (500 mg) was directly added to the dissolution apparatus (Electrolab USP-24, India). Samples were collected at 0, 1, 3, 5, 10, 15, 30, 60 and 90 min, filtered through 0.2 μm filters and analyzed by HPLC. Dissolution profiles were constructed by plotting the percentage amoxicillin released against time.
The HPLC system (Shimadzu Corporation, Kyoto, Japan) comprised of an SCL-10A VP system controller, LC-10AT VP liquid chromatograph, FCV-10AL VP flow control valve, DGU-14A degasser, SIL-10AD VP auto-injector, CTO-10AS VP column oven, SPD-M20A prominence diode array (PDA) detector and data acquisition Class-VP 6.10 software. The HPLC method was adopted from the United States Pharmacopoeia (USP). The method was validated for linearity, precision, accuracy and intra- and inter-day variability. The mobile phase was 50 mM monobasic potassium phosphate:methanol (96:4, v/v, pH 5.0). All analyses were carried out using Lichrospher® 100 RP-18e analytical column (5 μm, Merck KGaA, Darmstadt, Germany) under isocratic conditions at a flow rate of 1.0 mL·min^−1 at 25° C. with 20 μL injection volume. Effluent was monitored at a wavelength of 230 nm. Samples for calibration curve generation were prepared in 50 mM monobasic potassium phosphate:methanol 1:1 (v/v) proportion at a concentration range of 1 to 600 μg·mL^−1.
The three non-micronized (i.e. entries 1-3 of Table 1) and micronized (i.e. entries 4-6 of Table 1) amoxicillin trihydrate samples of Example 1 were subjected to a powder dissolution test (in triplicate) as outlined in the General section.

[2] = Particle size distribution by laser diffraction (Malvern); conditions: trihydrate
Procedure: Particle size distribution values D10, D50, D90 and D100 were determined using laser diffraction applying Malvern equipment. A suitable apparatus for determining D10, D50, D90 and D100 is a Malvern particle sizer 2600 C or a Malvern Zeta Sizer.
(§1) Parameters operated were: • Augar Speed: 5-90 rpm • Primary Air Pressure: 2-8 kg·cm^−2 • Secondary Air Pressure: 4-10 kg·cm^−2 The surface area (in triplicate), average particle size and contact angle (in quadruplicate) were determined as outlined in the General section. The purity of the amoxicillin trihydrate samples was 99.4±0.3% and were void of dichloromethane, isopropanol, pivalic acid and triethyl amine.

[3] = Specific powder surface area by nitrogen gas sorption (BET); conditions: triplicate, trihydrate
Procedure: Specific powder surface area was determined using nitrogen gas sorption (Smartsorb, Smart Instruments, Mumbai, India). Prior to measurements, samples were regenerated by degassing to remove moisture and contamination. The regenerated sample was dipped in liquid nitrogen and the quantity of the adsorbed gas was measured using a thermal conductivity detector and subsequently integrated using an electronic circuit in terms of counts. The instrument was calibrated by injecting a known quantity of nitrogen. The measured parameters were subsequently used to calculate the surface area of the sample by employing the adsorption theories of Brunauer, Emmett and Teller (BET).
as §1

[4] = Contact angle by sessile drop method (water); conditions: ambient conditions, trihydrate
Procedure: Contact angles of amoxicillin trihydrate powder samples were measured by the sessile drop method using an Drop Shape Analyzer instrument (FTA 1000, First Ten Angstrom, Virginia, USA). Powder samples were mounted on double sided adhesive tape adhered to a glass slide and excess powder was removed by tapping the slide. A drop of probe liquid (water) was dispersed onto the sample surface and video images were captured by the FTA image analyzer. The contact angle was calculated by the instrument by fitting a mathematical expression to the shape of the drop followed by calculating the slope of the tangent to the drop at the liquid-solid-vapor interface line. The surface tension of ultrapure ELGA laboratory water was measured to be 73±0.5 mN·m^−1 at 25° C. All measurements were performed in air under ambient conditions and an average of four measurements was reported in the below Examples.
as §1

Amoxicillin released in solution Mean ([1]; 0 min): 0% | Amoxicillin released in solution #1 ([1]; 0 min): 0% | Amoxicillin released in solution #2 ([1]; 0 min): 0% | Amoxicillin released in solution #3 ([1]; 0 min): 0% | Amoxicillin released in solution Mean ([1]; 1 min, trihydrate): 70.68% | Amoxicillin released in solution #1 ([1]; 1 min, trihydrate): 70.98% | Amoxicillin released in solution #2 ([1]; 1 min, trihydrate): 72.37% | Amoxicillin released in solution #3 ([1]; 1 min, trihydrate): 68.67% | Amoxicillin released in solution Mean ([1]; 3 min, trihydrate): 79.56% | Amoxicillin released in solution #1 ([1]; 3 min, trihydrate): 82.73% | Amoxicillin released in solution #2 ([1]; 3 min, trihydrate): 76.25% | Amoxicillin released in solution #3 ([1]; 3 min, trihydrate): 79.68% | Amoxicillin released in solution Mean ([1]; 5 min, trihydrate): 82.60% | Amoxicillin released in solution #1 ([1]; 5 min, trihydrate): 84.40% | Amoxicillin released in solution #2 ([1]; 5 min, trihydrate): 78.46% | Amoxicillin released in solution #3 ([1]; 5 min, trihydrate): 84.94% | Amoxicillin released in solution Mean ([1]; 10 min, trihydrate): 85.67% | Amoxicillin released in solution #1 ([1]; 10 min, trihydrate): 85.63% | Amoxicillin released in solution #2 ([1]; 10 min, trihydrate): 82.85% | Amoxicillin released in solution #3 ([1]; 10 min, trihydrate): 88.53% | Amoxicillin released in solution Mean ([1]; 15 min, trihydrate): 88.11% | Amoxicillin released in solution #1 ([1]; 15 min, trihydrate): 87.94% | Amoxicillin released in solution #2 ([1]; 15 min, trihydrate): 85.45% | Amoxicillin released in solution #3 ([1]; 15 min, trihydrate): 90.95% | Amoxicillin released in solution Mean ([1]; 30 min, trihydrate): 96.85% | Amoxicillin released in solution #1 ([1]; 30 min, trihydrate): 96.08% | Amoxicillin released in solution #2 ([1]; 30 min, trihydrate): 96.66% | Amoxicillin released in solution #3 ([1]; 30 min, trihydrate): 97.81% | Amoxicillin released in solution Mean ([1]; 60 min, trihydrate): 99.37% | Amoxicillin released in solution #1 ([1]; 60 min, trihydrate): 99.56% | Amoxicillin released in solution #2 ([1]; 60 min, trihydrate): 98.85% | Amoxicillin released in solution #3 ([1]; 60 min, trihydrate): 99.69% | Amoxicillin released in solution Mean ([1]; 90 min, trihydrate): 98.76% | Amoxicillin released in solution #1 ([1]; 90 min, trihydrate): 97.01% | Amoxicillin released in solution #2 ([1]; 90 min, trihydrate): 99.48% | Amoxicillin released in solution #3 ([1]; 90 min, trihydrate): 99.78% | Average Particle Size D10 [2]: 1.9 μm | Average Particle Size D50 [2]: 10.0 μm | Average Particle Size D90 [2]: 22.4 μm | Average Particle Size D100 [2]: 38.9 μm | Surface Area Mean ± SD (n = 3) [3]: 1.69 ± 0.07 m^2 · g^−1 | Contact Angle Mean ± SD (n = 4) [4]: 107.84 ± 1.72
SMILES: CC1(C)S[C@@H]2[C@H](NC(=O)[C@H](N)c3ccc(O)cc3)C(=O)N2[C@H]1C(=O)O.O.O.O [entry 6, amoxicillin trihydrate]

Amoxicillin released in solution Mean ([1]; 0 min): 0% | Amoxicillin released in solution #1 ([1]; 0 min): 0% | Amoxicillin released in solution #2 ([1]; 0 min): 0% | Amoxicillin released in solution #3 ([1]; 0 min): 0% | Amoxicillin released in solution Mean ([1]; 1 min, trihydrate): 85.98% | Amoxicillin released in solution #1 ([1]; 1 min, trihydrate): 84.65% | Amoxicillin released in solution #2 ([1]; 1 min, trihydrate): 86.65% | Amoxicillin released in solution #3 ([1]; 1 min, trihydrate): 86.65% | Amoxicillin released in solution Mean ([1]; 3 min, trihydrate): 99.25% | Amoxicillin released in solution #1 ([1]; 3 min, trihydrate): 99.74% | Amoxicillin released in solution #2 ([1]; 3 min, trihydrate): 99.01% | Amoxicillin released in solution #3 ([1]; 3 min, trihydrate): 99.01% | Amoxicillin released in solution Mean ([1]; 5 min, trihydrate): 99.51% | Amoxicillin released in solution #1 ([1]; 5 min, trihydrate): 99.44% | Amoxicillin released in solution #2 ([1]; 5 min, trihydrate): 99.54% | Amoxicillin released in solution #3 ([1]; 5 min, trihydrate): 99.54% | Amoxicillin released in solution Mean ([1]; 10 min, trihydrate): 99.14% | Amoxicillin released in solution #1 ([1]; 10 min, trihydrate): 98.65% | Amoxicillin released in solution #2 ([1]; 10 min, trihydrate): 99.04% | Amoxicillin released in solution #3 ([1]; 10 min, trihydrate): 99.73% | Amoxicillin released in solution Mean ([1]; 15 min, trihydrate): 99.12% | Amoxicillin released in solution #1 ([1]; 15 min, trihydrate): 99.28% | Amoxicillin released in solution #2 ([1]; 15 min, trihydrate): 98.69% | Amoxicillin released in solution #3 ([1]; 15 min, trihydrate): 99.38% | Amoxicillin released in solution Mean ([1]; 30 min, trihydrate): 99.31% | Amoxicillin released in solution #1 ([1]; 30 min, trihydrate): 99.50% | Amoxicillin released in solution #2 ([1]; 30 min, trihydrate): 99.56% | Amoxicillin released in solution #3 ([1]; 30 min, trihydrate): 98.87% | Amoxicillin released in solution Mean ([1]; 60 min, trihydrate): 99.25% | Amoxicillin released in solution #1 ([1]; 60 min, trihydrate): 99.56% | Amoxicillin released in solution #2 ([1]; 60 min, trihydrate): 99.10% | Amoxicillin released in solution #3 ([1]; 60 min, trihydrate): 99.10% | Amoxicillin released in solution Mean ([1]; 90 min, trihydrate): 99.76% | Amoxicillin released in solution #1 ([1]; 90 min, trihydrate): 99.93% | Amoxicillin released in solution #2 ([1]; 90 min, trihydrate): 99.61% | Amoxicillin released in solution #3 ([1]; 90 min, trihydrate): 99.74% | Average Particle Size D10 [2]: 12.3 μm | Average Particle Size D50 [2]: 39.8 μm | Average Particle Size D90 [2]: 93.3 μm | Average Particle Size D100 [2]: 275.9 μm | Surface Area Mean ± SD (n = 3) [3]: 0.58 ± 0.09 m^2 · g^−1 | Contact Angle Mean ± SD (n = 4) [4]: 75.50 ± 2.95
SMILES: CC1(C)S[C@@H]2[C@H](NC(=O)[C@H](N)c3ccc(O)cc3)C(=O)N2[C@H]1C(=O)O.O.O.O [entry 1, amoxicillin trihydrate]

— US9820943B2, “Micronized amoxicillin” (DSM SINOCHEM PHARMACEUTICALS NETHERLANDS B.V., priority 2013, dated 2017)
